In test [1] the test system is blast-exposed rats. Nature of the test: Blast-induced tinnitus, gap ratio, etanercept. Format: in vivo, rat. The following applies: for gap ratio values (gap/startle-only response), therapeutic effect on tinnitus: FIG. 29. As for the experimental part: Each of the rats was subjected to blast exposure in the left ear using a shock tube (ORA Inc.) located at the Wayne State University Bioengineering Center. The blast exposure of each rat was performed under anesthesia with a mixture of air (1 liter/min) and isoflurane (5% v/v). The rat was placed on supportive netting with a metal surround and secured on a pole with its head facing the oncoming shockwave. During blast exposure, the rat's right ear was occluded with a silicone earplug (Mack's; McKeon Products, Warren, Mich.), followed by application of mineral oil to seal any remaining openings. The average energy under 10 kHz measured at 22 psi was equivalent to 150 kPa or 197.5 dB SPL. After blast exposure, each rat was transferred to a polycarbonate cage.
Thirty two rats from Example 10 were used. Behavioral tinnitus testing, including gap detection and PPI testing, was conducted with Hamilton-Kinder startle-reflex hardware and software. During behavioral testing, each rat was placed in an individual noise-attenuation chamber to perform gap and PPI testing. In the gap procedure, each rat was presented with a constant 60-dB SPL background noise composed of 2,000 Hz bandpass signals at 6-8, 10-12, 14-16, 18-20, or 26-28 kHz or broadband noise (BBN; 2-30 kHz). A 115 dB SPL, 50 ms noise-burst was used as the startle stimulus to induce the acoustic startle reflex. The background noise session contained two conditions, one condition was the startle only condition in which rat was presented with the startle stimulus alone, and the other condition was the gap condition in which a rat was presented with a startle stimulus preceded by a silent gap embedded within the background noise. Silent gaps were 40 ms in duration with a lead interval of 90 ms to the startle stimulus. The startle reflex of rats was measured in response to 3 conditions: 1) background noise alone, 2) startle only, and 3) gap. […] The startle amplitude of rats in response to the two conditions was measured: the startle-only condition and a prepulse followed by the startle stimulus. […]

The conditions of test [2]: 5 mg/kg, I.P. route; cited from earlier work.
The test system of test [3] is wildtype and TNF-α KO mice.
Experimental: Tinnitus was assessed using the gap detection paradigm. The gap detection task measures the acoustic startle response elicited by a brief white noise pulse and its suppression by a preceding silent gap embedded in a background sound. […] Mice were placed in a small box, which rested atop a piezoelectric sensor within a sound attenuation chamber. Sounds were played through an open field speaker (FOSTEX FT17H) fixed above the small box. Each trial began with a carrier pure tone (frequency pseudo-randomly selected from 5, 7, 10, 14, 20, 28, or 45 kHz, all at 75 dB SPL), played for 10-20 s. In uncued trials, the carrier tone was followed by a startle stimulus—a 50 ms white noise burst at 102 dB SPL. In cued trials, the startle stimulus was preceded by a 50 ms silence, 100 ms prior to its onset. In each testing session, the animal performed a total of 500 trials (50% cued and 50% uncued). After each session, the startle response ratio was calculated, which is defined as the average startle amplitude to the cued trials divided by the average amplitude of the uncued trials. The startle response ratio signifies a silent-gap induced reduction of the startle response. For example, a startle response ratio of 0.6 indicates a 40% reduction of the startle amplitude for the cued trials.
The next test has as its system WT and KO mice. Conditions: systemic salicylate injection, FIGS. 5C-5D.
In a further test the test system is TNF-α. The following applies: has been shown; cited from earlier work.
The subject of test [4] is blast-exposed rats. Nature of the test: Blast-induced tinnitus, gap detection, thalidomide treatment. The following applies: injected daily for 5 days, FIG. 8C. Format: in vivo, rat. Here is the method: A rat model of blast-induced tinnitus was developed to investigate the role of TNF-α in a traumatic brain injury (TBI) blast exposure induced tinnitus. Rats were anesthetized with isoflurane (0.75-1% in a 2:1 N2O:O2 gas mixture), placed on supportive netting, and secured with a locking device. All animals had one ear occluded with an earplug before they were blast-exposed in a shock-tube assembly (ORA, Inc.).
Behavioral evidence of blast-induced tinnitus was tested using a gap detection test as described above. […] Blast-exposed rats also spent less time in, and made fewer entries into, the open arms of an elevated plus maze (FIG. 7C), showing a higher anxiety level. The results are consistent with findings in blast-exposed humans and indicate that the blast model is suitable for studying mechanisms and treatment of blast-induced tinnitus and anxiety.

In a further test the test system is C57BL/6 mice. The experiment in a line: Noise-induced tinnitus (NIHL), gap detection task, thalidomide treatment. The class given is in vivo, mouse. Conditions: 100 mg/kg IP daily for three days after noise exposure, FIG. 9. Here is the method:
All experimental procedures were reviewed and approved by UC Berkeley Animal Care and Use Committee. TNF-α knockout (KO) mice and corresponding C75Bl/6 wild-type (WT) mice were originally purchased from the Jackson Laboratory and were bred in a UC Berkeley animal facility. Animals were anesthetized with ketamine (100 mg/kg, IP) and xylazine (10 mg/kg, IP) and maintained at 36.5° C. with a homeothermic heating pad (Harvard Apparatus). Unilateral noise-induced hearing loss (NIHL) experiments were performed in a sound attenuation chamber by playing a continuous pure tone of 8 kHz at 112 dB SPL through a calibrated custom-made piezo earphone speaker to the left ear of the mouse for 2 hours, while the right ear was protected with sound attenuating clay. The sound level was calibrated with a Bruel and Kjaer 4135 condenser microphone (Nærum, Denmark) before and after the NIHL.
Tinnitus was assessed using the gap detection paradigm.
Eight C57BL/6 mice were tested with the gap detection task, described above, before and after undergoing NIHL. […] Afterward, animals received daily injection of 100 mg/kg (IP) thalidomide for three days and were tested for tinnitus.

Entries after “also recorded” stand apart in the source; their conditions may differ. Where two headings read alike, the source gives them in different places.

Experimental for WT and KO mice: To assess an animal's ability to perform an auditory task, separate from its ability to detect a silent gap, the pre-pulse inhibition (PPI) task was administered to a subset of the mice before and after NIHL. The physical setup for the PPI task was identical to that of the gap detection. However, the trial structure differed in that carrier tone was absent and a white noise burst was cued by a 50-ms pure tone pulse (frequency pseudo-randomly selected from 5, 7, 10, 14, 20, 28, or 45 kHz, all at 75 dB SPL). In short, the PPI task tests an animal's ability to detect a pure tone pulse in silence, while the gap detection task measures an animal's ability to detect a silent gap in a continuous pure tone.

As to etanercept, the “gap ratio values (gap/startle-only response), therapeutic effect on tinnitus” value in the test on blast-exposed rats [1] (5 mg/kg i.p. daily for 5 days from 1 day after blast, low frequencies and 28 kHz, two-week and three-week timepoints) was “significant therapeutic effect on tinnitus”; with blast-exposed rats [1] (5 mg/kg i.p. daily for 5 days, one-day and one-week timepoints), “less pronounced”. Moreover, the “onset of therapeutic effect relative to 3,6′-dithiothalidomide” value in the test on blast-exposed rats [1] (compare FIG. 29 with FIG. 15A) is listed as “delayed therapeutic effect”. In addition, the “effect on TBI” value in test [2] is “attenuates TBI”.

With `O=C(O)c1ccccc1O` [salicylate], the “behavioral manifestation of tinnitus (gap detection)” value in test [3] (TNF-α KO mice, same dose 300 mg/kg, FIG. 5B) was “did not show tinnitus”; in test [3] (wildtype mice, systemic injection 300 mg/kg, 30 min later, FIG. 5A), “resulted in robust behavioral manifestation of tinnitus”. In the test with WT and KO mice, the PPI performance result is listed as “affected PPI performance in WT but not KO mice”. In addition, the “TNF-α expression in the inferior colliculus” value in the test on TNF-α is on record as “increase TNF-α expression in the inferior colliculus”.

As to `O=C1CCC(N2C(=O)c3ccccc3C2=O)C(=O)N1` (stereo not shown) [thalidomide], in the test with blast-exposed rats [4], the “blast-induced tinnitus (gap detection)” value is reported as “Significant suppression of tinnitus; also recorded: significantly suppressed”. In the test with C57BL/6 mice, the “gap detection performance after NIHL” value is “dramatically improved gap detection performance over a wide frequency range, completely reversing the impairment”.

(Values after patent publication US20180021315A1, “METHODS OF TREATING HEARING DISORDERS” (Wayne State University, priority 2016, published 2018).)
